PubChem BioAssay (NCI)
Values joined by “and” are separate entries in the source; they are usually repeats but may differ in a detail not shown here. Identical values can stand only once.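 Tested at 5 concentrations; 48 h exposure; 96-well plates; endpoints linearly interpolated, else capped at highest concentration. Here, GI50 denotes the concentration required for 50% inhibition of growth. The concentration for full growth arrest is given as TGI.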

Legend:
Assay in all cases: DTP human tumour cell line panel, 48 h
ACHN renal = tested on: ACHN renal
HOP-92 NSCLC = tested on: HOP-92 NSCLC
KM12 colon = tested on: KM12 colon
M14 melanoma = tested on: M14 melanoma
MALME-3M melanoma = tested on: MALME-3M melanoma
MOLT-4 leukemia = tested on: MOLT-4 leukemia
NCI-H226 lung = tested on: NCI-H226 lung
SF-268 CNS = tested on: SF-268 CNS
MCF7 breast = tested on: MCF7 breast
RPMI-8226 leukemia = tested on: RPMI-8226 leukemia

| SMILES | TGI (ACHN renal) | TGI (HOP-92 NSCLC) | TGI (KM12 colon) | TGI (M14 melanoma) | TGI (MALME-3M melanoma) | TGI (MOLT-4 leukemia) [µM] | TGI (NCI-H226 lung) [µM] | TGI (SF-268 CNS) | TGI (MCF7 breast) [µM] | TGI (RPMI-8226 leukemia) | GI50 (ACHN renal) [µM] | GI50 (HOP-92 NSCLC) [µM] | GI50 (KM12 colon) [µM] | GI50 (MALME-3M melanoma) [µM] | GI50 (MCF7 breast) [µM] | GI50 (MOLT-4 leukemia) [µM] | GI50 (NCI-H226 lung) [µM] | GI50 (RPMI-8226 leukemia) | GI50 (SF-268 CNS) [µM] |
| --- | --- | --- | --- | --- | --- | --- | --- | --- | --- | --- | --- | --- | --- | --- | --- | --- | --- | --- | --- |
| Nc1ccc(N=Nc2c(S(=O)(=O)O)cc3ccccc3c2S(=O)(=O)O)cc1 | > 100 µM | > 100 µM | > 100 µM | > 100 µM | > 100 µM | > 100 | > 100 | > 100 µM | – | – | – | – | – | – | – | – | – | – | – |
| O=C(/C=C/c1ccccc1)Oc1ccc(C(=O)/C=C/c2ccccc2)cc1 | 18.3 µM | 39 µM | 15.9 µM | 23.3 µM | – | 16.8 | > 100 | 18.3 µM | > 31.6 | 15.4 µM | – | – | – | – | – | – | – | – | – |
| COC(=O)C1CCCC2(C1)OCCO2 (configuration not stated) | > 100 µM | > 100 µM | > 100 µM | > 100 µM | > 100 µM | > 100 | > 100 | > 100 µM | – | > 100 µM | – | – | – | – | – | – | – | – | – |
| O=C(CCn1ccnc1[N+](=O)[O-])NCCCn1ccnc1[N+](=O)[O-] | > 100 µM | – | > 100 µM | > 100 µM | > 100 µM | > 100 | > 100 | > 100 µM | > 100 | > 100 µM | – | – | – | – | – | – | – | – | – |
| On1c(-c2ccccc2)c(-c2ccccc2N2CCCC2)c2ccccc21 | > 100 µM | > 100 µM | > 100 µM | > 100 µM | > 100 µM | > 100 | > 100 | > 100 µM | – | > 100 µM | – | – | – | – | – | – | – | – | – |
| CNc1cc2c(c3ccccc13)C(CCl)CN2C(=O)c1cc2cc(OC)c(OC)c(OC)c2[nH]1 (configuration not stated) | 0.00154 µM | 0.0466 µM | 0.103 µM | – | – | 0.023 | 0.067 | – | 0.131 | 0.0649 µM | – | – | – | – | – | – | – | – | – |
| Cc1c2n(c(=O)[nH]c1=O)C1OC(CO)C(N=[N+]=[N-])C1O2 (configuration not stated) | > 100 µM | > 100 µM | > 100 µM | – | – | > 100 | > 100 | > 100 µM | – | > 100 µM | – | – | – | – | – | – | – | – | – |
| N#CNC(=NCc1ccccc1)N(Cc1ccccc1)Cc1ccccc1 | – | > 31.6 µM | > 31.6 µM | > 31.6 µM | – | 47.7 | > 31.6 | > 31.6 µM | > 100 | > 31.6 µM | – | – | – | – | – | – | – | – | – |
| O=[N+]([O-])C(=C(Nc1cccc2cccnc12)Nc1cccc2cccnc12)C(Cl)=C(Cl)Cl | > 51.1 µM | – | > 100 µM | > 100 µM | > 100 µM | > 100 | > 100 | > 100 µM | 54.8 | > 100 µM | – | – | – | – | – | – | – | – | – |
| COC1=CC(=O)c2c(c(-c3nc(C)cs3)cn2C)C1=O | > 100 µM | 43.2 µM | 26.7 µM | 7.39 µM | – | > 80.9 | 77.2 | 39.6 µM | 10.9 | > 22.1 µM | – | – | – | – | – | – | – | – | – |
| Cc1nc(C)c(C(=O)NNC(=O)C[N+](C)(C)C)cc1C(=O)NNC(=O)C[N+](C)(C)C | > 100 µM | > 100 µM | > 100 µM | > 100 µM | – | – | > 100 | > 100 µM | > 100 | – | – | – | – | – | – | – | – | – | – |
| CCOC(=O)c1c(-c2ccc(O)c(OC)c2)c(C#N)c(=S)n(C2OC(CO)C(O)C(O)C2O)c1-c1ccccc1 (configuration not stated) | > 100 µM | > 100 µM | > 100 µM | > 100 µM | – | > 100 | > 100 | > 100 µM | > 100 | > 100 µM | – | – | – | – | – | – | – | – | – |
| CCCCCCCCCCCCCCCCNc1cccc2ccccc12 | > 100 µM | – | > 100 µM | > 100 µM | > 100 µM | > 100 | > 100 | > 100 µM | – | > 100 µM | – | – | – | – | – | – | – | – | – |
| Cc1cccc(C)c1NC(=O)C(Cc1c[nH]c2ccccc12)NC(=O)OCc1ccccc1 (configuration not stated) | 53.2 µM | 62.4 µM | 57 µM | 31.7 µM | 52.8 µM | 63.7 | – | > 100 µM | 95.8 | 55.3 µM | – | – | – | – | – | – | – | – | – |
| CCNC(=S)NNC(=O)C12CC3CC(CC(C3)C1)C2 | > 100 µM | – | > 100 µM | > 100 µM | > 100 µM | > 100 | > 100 | > 100 µM | > 100 | > 100 µM | – | – | – | – | – | – | – | – | – |
| COC(C)(C)C1(O)CC[C@@H](C)CC1=O (some centres not stated) | > 100 µM | > 100 µM | > 100 µM | > 100 µM | > 100 µM | > 100 | – | > 100 µM | > 100 | > 100 µM | – | – | – | – | – | – | – | – | – |
| CC(=O)NC1C(OCc2ccccc2)OC(CO)C(O)C1OCC(=O)N[C@@H](C)C(=O)N[C@H](CCC(=O)NCCCNc1c2ccccc2nc2cccc([N+](=O)[O-])c12)C(N)=O (some centres not stated) | 0.115 µM | – | 0.397 µM | 0.209 µM | 0.129 µM | 11 | 0.287 | – | 2.42 | 0.242 µM | – | – | – | – | – | – | – | – | – |
| CCOS(C)(=O)=O | > 100 µM | 30.7 µM | > 100 µM | > 100 µM | > 100 µM | > 100 | > 100 | > 100 µM | > 100 | – | – | – | – | – | – | – | – | – | – |
| NC(=O)c1c(NC(=O)c2ccccc2)sc2c1CCC(=O)C2 | 2.48 µM | 4.99 µM | 5.61 µM | – | 5.53 µM | 8.3 | 9.1 | > 100 µM | 9.02 | 0.751 µM | 0.698 | 1.42 | 1.36 | 2.14 | 1.82 | 1.12 | 2.2 | 0.248 µM | 2.81 |
| O=C(O)[C@H]1CCCN1CP(=O)(O)CN1CCC[C@@H]1C(=O)O | > 100 µM | > 100 µM | > 100 µM | > 100 µM | > 100 µM | > 100 | – | > 100 µM | > 100 | – | – | – | – | – | – | – | – | – | – |
| COC(=O)C(=Cc1cc(OC)c(OC)c(OC)c1-c1cc2c(cc1C1(C)OCCS1)OCO2)C(=O)OC (configuration not stated) | > 100 µM | 37.6 µM | 79.8 µM | – | > 100 µM | > 100 | > 100 | > 100 µM | – | > 100 µM | – | – | – | – | – | – | – | – | – |
| CCOC(=O)N1CCC(N[C@@H]2c3cc4c(cc3C(c3cc(OC)c(O)c(OC)c3)C3C(=O)OC[C@@H]32)OCO4)CC1 (some centres not stated) | 1.63 µM and 1.86 µM | 3.5 µM and 3.67 µM | 9.2 µM and 7.56 µM | 6.31 µM and 8.14 µM | 9.79 µM and 9.69 µM | – | – | 30.8 µM and > 25 µM | – | 18.7 µM and > 25 µM | – | – | – | – | – | – | – | 1.46 µM and 4.12 µM | – |
| COc1ccc(C2c3cn[nH]c3CC3CCCCC32)cc1 (configuration not stated) | 33.1 µM | – | – | 36.6 µM | 38.4 µM | 46.1 | 36.9 | 39.6 µM | 32.8 | 73.2 µM | – | – | – | – | – | – | – | – | – |
